Reference: ChEMBL document CHEMBL3045675, “Synthesis and structure-activity relationships of some pesticides with an alpha-amino acid function” (Biochim Biophys Acta, 1997)
The source made the active and inactive calls. The calls are words filed in the database; no cut-off is given here.

How the values were obtained:
Vicia faba [1] = assay: Herbicidal activity against Vicia faba assessed as 1 mM of L-[3H]theronine uptake in leaf at 10 mM after 1 hr by liquid scintillation counting analysis relative to untreated control; assay type: functional
Vicia faba [2] = assay: Herbicidal activity against Vicia faba assessed as 1 mM of L-[3H]theronine uptake in leaf at 5 mM after 1 hr by liquid scintillation counting analysis relative to untreated control; assay type: functional
Vicia faba [3] = assay: Herbicidal activity against Vicia faba assessed as 1 mM of L-[3H]theronine uptake in leaf at 1 mM after 1 hr by liquid scintillation counting analysis relative to untreated control; assay type: functional
Vicia faba [4] = assay: Herbicidal activity against Vicia faba assessed as inhibition of 1 mM of [U-14C]theronine uptake in veins after 1 hr by autoradiographic analysis relative to untreated control; assay type: functional, organism-based
Vicia faba [5] = assay: Herbicidal activity against Vicia faba assessed as inhibition of 1 mM of [U-14C]theronine uptake in mesophyll after 1 hr by autoradiographic analysis relative to untreated control; assay type: functional, organism-based
Vicia faba [6] = assay: Herbicidal activity against Vicia faba assessed as inhibition of threonine uptake; assay type: functional, organism-based; settings: read-out: Ki(app)
Vicia faba [7] = assay: Herbicidal activity against Vicia faba assessed as change in 12 mM KCl-induced depolarization of transmembrane potential difference in mesophyll cells at 2.5 mM after 1 hr by electrophysiological assay; assay type: functional, organism-based
Vicia faba [8] = assay: Herbicidal activity against Vicia faba assessed as change in 10 mM sucrose-induced depolarization of transmembrane potential difference in mesophyll cells at 2.5 mM after 1 hr by electrophysiological assay relative to control; assay type: functional, organism-based
Vicia faba [9] = assay: Herbicidal activity against Vicia faba assessed as reduction in 10 mM threonine-induced depolarization of transmembrane potential difference in mesophyll cells at 2.5 mM after 1 hr by electrophysiological assay relative to control; assay type: functional, organism-based
Vicia faba [10] = assay: Herbicidal activity against Vicia faba assessed as decrease in 1 mM of L-[3H]lysine uptake in leaf at pH 3.5 at 2.5 mM after 1 hr by liquid scintillation counting analysis; assay type: functional, organism-based
Vicia faba [11] = assay: Herbicidal activity against Vicia faba assessed as inhibition of 1 mM of L-[3H]lysine uptake in leaf at pH 4 at 2.5 mM after 1 hr by liquid scintillation counting analysis; assay type: functional
Vicia faba [12] = assay: Herbicidal activity against Vicia faba assessed as inhibition of 1 mM of L-[3H]threonine uptake in leaf at pH 4 at 2.5 mM after 1 hr by liquid scintillation counting analysis; assay type: functional
Vicia faba [13] = assay: Herbicidal activity against Vicia faba assessed as inhibition of 1 mM of L-[3H]glutamate uptake in leaf at pH 4 at 2.5 mM after 1 hr by liquid scintillation counting analysis; assay type: functional
Vicia faba [14] = assay: Herbicidal activity against Vicia faba assessed as decrease in 1 mM of L-[3H]lysine uptake in leaf at pH 8 at 2.5 mM after 1 hr by liquid scintillation counting analysis; assay type: functional, organism-based
Vicia faba [15] = assay: Herbicidal activity against Vicia faba assessed as decrease in 1 mM of L-[3H]glutamate uptake in leaf at pH 8 at 2.5 mM after 1 hr by liquid scintillation counting analysis; assay type: functional, organism-based
[16] = Solubility in hydrochloric acid; assay type: physicochemical
[17] = Solubility in organic solvents; assay type: physicochemical
[18] = Solubility in water; assay type: physicochemical; settings: buffer
Vicia faba [19] = assay: Herbicidal activity against Vicia faba assessed as 1 mM of L-[3H]lysine uptake in leaf at 1 mM after 1 hr by liquid scintillation counting analysis relative to untreated control; assay type: functional, organism-based
Vicia faba [20] = assay: Herbicidal activity against Vicia faba assessed as 1 mM of L-[3H]glutamate uptake in leaf at 1 mM after 1 hr by liquid scintillation counting analysis relative to untreated control; assay type: functional
Vicia faba [21] = assay: Herbicidal activity against Vicia faba assessed as 1 mM of L-[3H]theronine uptake in leaf at 20 uM after 1 hr by liquid scintillation counting analysis relative to untreated control; assay type: functional
Vicia faba [22] = assay: Herbicidal activity against Vicia faba assessed as 1 mM of L-[3H]theronine uptake in leaf at 10 uM after 1 hr by liquid scintillation counting analysis relative to untreated control; assay type: functional
Vicia faba [23] = assay: Herbicidal activity against Vicia faba assessed as 1 mM of L-[3H]theronine uptake in leaf at 5 uM after 1 hr by liquid scintillation counting analysis relative to untreated control; assay type: functional
Vicia faba [24] = assay: Herbicidal activity against Vicia faba assessed as inhibition of 1 mM of [3H]sucrose uptake in leaf at 1 mM after 1 hr by liquid scintillation counting analysis relative to untreated control; assay type: functional, organism-based
Vicia faba [25] = assay: Herbicidal activity against Vicia faba assessed as inhibition of 1 mM of L-[3H]theronine uptake in leaf at 1 mM after 1 hr by liquid scintillation counting analysis relative to untreated control; assay type: functional
[26] = Octanol-water partition coefficient, log KOW of the compound; assay type: physicochemical; settings: read-out: log KOW
Vicia faba [27] = assay: Herbicidal activity against Vicia faba assessed as change in 12 mM KCl-induced depolarization of transmembrane potential difference in mesophyll cells at 1 mM after 1 hr by electrophysiological assay; assay type: functional, organism-based
Vicia faba [28] = assay: Herbicidal activity against Vicia faba assessed as change in 10 mM sucrose-induced depolarization of transmembrane potential difference in mesophyll cells at 1 mM after 1 hr by electrophysiological assay (reference value: 9.2 +/- 7.1 mV); assay type: functional
Vicia faba [29] = assay: Herbicidal activity against Vicia faba assessed as reduction in 10 mM threonine-induced depolarization of transmembrane potential difference in mesophyll cells at 1 mM after 1 hr by electrophysiological assay (reference value: 27.9 +/- 12.7 mV); assay type: functional
Vicia faba [30] = assay: Herbicidal activity against Vicia faba assessed as change in transmembrane potential difference in mesophyll cells at 1 mM after 1 hr by electrophysiological assay (reference value: - 154 +/- 13.2 mV); assay type: functional
Vicia faba [31] = assay: Herbicidal activity against Vicia faba assessed as inhibition of 1 mM of [U-14C]theronine loading in phloem after 1 hr by autoradiographic analysis relative to untreated control; assay type: functional, organism-based

N[C@@H](CCC(=O)O)C(=O)O [GLUTAMIC ACID]
Activity (Vicia faba [1]): 67.2% | Activity (Vicia faba [2]): 76.2% | Activity (Vicia faba [3]): 96.7%

N[C@H](CCCCNC(=O)COc1ccc(Cl)cc1Cl)C(=O)O [D-LYSINE-2,4-DICHLOROPHENO-XYACETIC ACID]
inhibition (Vicia faba [4]): inactive | inhibition (Vicia faba [5]): inactive | Activity (Vicia faba [3]): 74.2%

NCCCC[C@H](N)C(=O)O [LYSINE]
Activity (Vicia faba [1]): 104% | Activity (Vicia faba [2]): 99.6% | Activity (Vicia faba [3]): 97%

N[C@@H](CCCCNC(=O)COc1ccc(Cl)cc1Cl)C(=O)O
Ki (Vicia faba [6]): 500 µM | Activity (Vicia faba [7]): inactive | Activity (Vicia faba [8]): inactive | Activity (Vicia faba [9]): inactive | Activity (Vicia faba [10]): inactive | inhibition (INH) (Vicia faba [11]): 81% | inhibition (INH) (Vicia faba [12]): 79% | inhibition (INH) (Vicia faba [13]): 51% | Activity (Vicia faba [14]): Active | Activity (Vicia faba [15]): Active | solubility [16]: soluble | solubility [17]: Insoluble | solubility [18]: soluble | inhibition (Vicia faba [19]): Active | inhibition (Vicia faba [20]): Active | Activity (Vicia faba [21]): 80.7% | Activity (Vicia faba [22]): 91% | Activity (Vicia faba [23]): 91.8% | inhibition (Vicia faba [24]): inactive | inhibition (Vicia faba [25]): Active | logP [26]: -0.49

CC(C)[C@H](N)C(=O)O [VALINE]
Activity (Vicia faba [1]): 63.7% | Activity (Vicia faba [2]): 77.4% | Activity (Vicia faba [3]): 99.2%

N[C@@H](CCCCNC(=O)CCCOc1ccc(Cl)cc1Cl)C(=O)O
Activity (Vicia faba [27]): inactive | Activity (Vicia faba [28]): 10.1 mV | Activity (Vicia faba [29]): 10.2 mV | Activity (Vicia faba [30]): -161.9 mV | solubility [16]: soluble | solubility [17]: Insoluble | solubility [18]: soluble | inhibition (Vicia faba [19]): Active | inhibition (Vicia faba [20]): Active | inhibition (Vicia faba [31]): Active | inhibition (Vicia faba [24]): inactive | inhibition (Vicia faba [25]): Active | logP [26]: -0.49

N[C@@H](CCCCNC(=O)COc1ccccc1)C(=O)O [L-LYSINE-PHENOXYACETIC ACID]
inhibition (Vicia faba [19]): Active | inhibition (Vicia faba [4]): Active | inhibition (Vicia faba [5]): Active | inhibition (Vicia faba [24]): inactive

N[C@@H](CCCCNC(=O)COc1ccc(Cl)cc1)C(=O)O [L-LYSINE-4-CHLOROPHENOXYACETIC ACID]
inhibition (Vicia faba [24]): inactive

Cc1cc(Cl)ccc1OCC(=O)NCCCC[C@H](N)C(=O)O [L-LYSINE-2-METHYL-4-CHLOROROPHENOXYACETIC ACID]
solubility [16]: soluble | solubility [17]: Insoluble | solubility [18]: soluble | inhibition (Vicia faba [24]): inactive | inhibition (Vicia faba [25]): Active | logP [26]: -0.59

Nc1ccc(OCC(=O)NCCCC[C@H](N)C(=O)O)cc1
solubility [16]: soluble | solubility [17]: Insoluble | solubility [18]: soluble | inhibition (Vicia faba [4]): Active | inhibition (Vicia faba [5]): Active | inhibition (Vicia faba [24]): inactive | inhibition (Vicia faba [25]): inactive | logP [26]: -3

N[C@@H](CCCCNC(=O)COc1ccc([N+](=O)[O-])cc1)C(=O)O [L-LYSINE-4-NITROPHENOXYACETICACID]
inhibition (Vicia faba [24]): inactive
